The values that follow come from ChEMBL document CHEMBL2440076, “New triarylpyrazoles as broad-spectrum anticancer agents: design, synthesis, and biological evaluation” (Eur J Med Chem, 2013).

Assay type in all cases: functional
The subject of assay [1] is HOP-62. Put plainly: Growth inhibition of human HOP62 cells assessed as cell growth at 3X10'-7 M after 48 hrs by sulforhodamine B assay. The settings on record: HOP-62, 48 h, read-out: Activity. A general note: In SRB staining, fixed cells bind dye roughly in proportion to their protein.
The test system of assay [2] is K562. Put plainly: Growth inhibition of human K562 cells assessed as cell growth at 3X10'-7 M after 48 hrs by sulforhodamine B assay. The conditions noted are these: K562, 48 h, read-out: Activity.
The subject of a further assay is MDA-MB-231. The experiment in a line: Growth inhibition of human MDA-MB-231 cells assessed as cell growth at 3X10'-8 M after 48 hrs by sulforhodamine B assay. The settings on record: MDA-MB-231, 48 h, read-out: Activity.
A further assay relates to OVCAR-8. The experiment in a line: Growth inhibition of human OVCAR8 cells assessed as cell growth at 3X10'-8 M after 48 hrs by sulforhodamine B assay. The settings on record: OVCAR-8, 48 h, read-out: Activity.
Assay [3] deals with M14. Put plainly: Growth inhibition of human M14 cells assessed as cell growth at 3X10'-8 M after 48 hrs by sulforhodamine B assay. The settings on record: M14, 48 h, read-out: Activity.
The subject of assay [4] is NCI-H23. The experiment in a line: Growth inhibition of human NCI-H23 cells assessed as cell growth at 3X10'-8 M after 48 hrs by sulforhodamine B assay. The conditions noted are these: NCI-H23, 48 h, read-out: Activity.
Assay [5] deals with HOP-62. Put plainly: Growth inhibition of human HOP62 cells assessed as cell growth at 3X10'-8 M after 48 hrs by sulforhodamine B assay. The conditions noted are these: HOP-62, 48 h, read-out: Activity.
The test system of the next assay is MOLT-4. Put plainly: Growth inhibition of human MOLT4 cells assessed as cell growth at 3X10'-8 M after 48 hrs by sulforhodamine B assay. The conditions noted are these: MOLT-4, 48 h, read-out: Activity.
The next assay relates to HL-60(TB). The experiment in a line: Growth inhibition of human HL-60(TB) cells assessed as cell growth at 3X10'-8 M after 48 hrs by sulforhodamine B assay. The conditions noted are these: HL-60, 48 h, read-out: Activity.
Assay [6] concerns RXF 393. The experiment in a line: Growth inhibition of human RXF393 cells assessed as cell growth at 3X10'-5 M after 48 hrs by sulforhodamine B assay. The conditions noted are these: RXF 393, 48 h, read-out: Activity.
For another assay, the system named is OVCAR-5. The experiment in a line: Growth inhibition of human OVCAR5 cells assessed as cell growth at 3X10'-5 M after 48 hrs by sulforhodamine B assay. The conditions noted are these: OVCAR-5, 48 h, read-out: Activity.
Assay [7] has as its system RXF 393. The experiment in a line: Growth inhibition of human RXF393 cells assessed as cell growth at 3X10'-9 M after 48 hrs by sulforhodamine B assay. The conditions noted are these: RXF 393, 48 h, read-out: Activity.
For another assay, the system named is OVCAR-3. Put plainly: Growth inhibition of human OVCAR3 cells assessed as cell growth at 3X10'-9 M after 48 hrs by sulforhodamine B assay. The conditions noted are these: OVCAR-3, 48 h, read-out: Activity.
Assay [8] relates to OVCAR-4. Put plainly: Growth inhibition of human OVCAR4 cells assessed as cell growth at 3X10'-5 M after 48 hrs by sulforhodamine B assay. The settings on record: OVCAR-4, 48 h, read-out: Activity.
In another assay the test system is SK-MEL-28. The experiment in a line: Growth inhibition of human SK-MEL-28 cells assessed as cell growth at 3X10'-5 M after 48 hrs by sulforhodamine B assay. The settings on record: SK-MEL-28, 48 h, read-out: Activity.
A further assay concerns LOX IMVI. The experiment in a line: Growth inhibition of human LOXIMVI cells assessed as cell growth at 3X10'-5 M after 48 hrs by sulforhodamine B assay. The conditions noted are these: read-out: Activity.
The subject of the next assay is SNB-19. Put plainly: Growth inhibition of human SNB19 cells assessed as cell growth at 3X10'-5 M after 48 hrs by sulforhodamine B assay. The conditions noted are these: SNB-19, 48 h, read-out: Activity.
Assay [9] deals with NCI-H23. The experiment in a line: Growth inhibition of human NCI-H23 cells assessed as cell growth at 3X10'-5 M after 48 hrs by sulforhodamine B assay. The conditions noted are these: NCI-H23, 48 h, read-out: Activity.
The nature of assay [10]: Growth inhibition of human Hs 578T cells assessed as cell growth at 3X10'-6 M after 48 hrs by sulforhodamine B assay. The settings on record: read-out: Activity.
The test system of assay [11] is UACC-62. The experiment in a line: Growth inhibition of human UACC62 cells assessed as cell growth at 3X10'-9 M after 48 hrs by sulforhodamine B assay. The conditions noted are these: UACC-62, 48 h, read-out: Activity.
The next assay concerns SF-539. The experiment in a line: Growth inhibition of human SF539 cells assessed as cell growth at 3X10'-9 M after 48 hrs by sulforhodamine B assay. The settings on record: SF-539, 48 h, read-out: Activity.
For the next assay, the system named is SF-268. The experiment in a line: Growth inhibition of human SF268 cells assessed as cell growth at 3X10'-9 M after 48 hrs by sulforhodamine B assay. The conditions noted are these: SF-268, 48 h, read-out: Activity.
Another assay has as its system HCT-116. Put plainly: Growth inhibition of human HCT116 cells assessed as cell growth at 3X10'-9 M after 48 hrs by sulforhodamine B assay. The conditions noted are these: HCT-116, 48 h, read-out: Activity.
Another assay relates to 786-0. The experiment in a line: Growth inhibition of human 786-0 cells assessed as cell growth at 3X10'-6 M after 48 hrs by sulforhodamine B assay. The settings on record: 786-0, 48 h, read-out: Activity.
Assay [12] relates to UACC-62. The experiment in a line: Growth inhibition of human UACC62 cells assessed as cell growth at 3X10'-6 M after 48 hrs by sulforhodamine B assay. The settings on record: UACC-62, 48 h, read-out: Activity.
Assay [13] concerns K562. The experiment in a line: Growth inhibition of human K562 cells assessed as cell growth at 3X10'-6 M after 48 hrs by sulforhodamine B assay. The settings on record: K562, 48 h, read-out: Activity.
The nature of assay [14]: Growth inhibition of human Hs 578T cells assessed as cell growth at 3X10'-7 M after 48 hrs by sulforhodamine B assay. The settings on record: read-out: Activity.
Another assay deals with MCF7. Put plainly: Growth inhibition of human MCF7 cells assessed as cell growth at 3X10'-7 M after 48 hrs by sulforhodamine B assay. The settings on record: MCF7, 48 h, read-out: Activity.
For the next assay, the system named is UO-31. Put plainly: Growth inhibition of human UO31 cells assessed as cell growth at 3X10'-7 M after 48 hrs by sulforhodamine B assay. The settings on record: UO-31, 48 h, read-out: Activity.
The next assay has as its system COLO 205. Put plainly: Growth inhibition of human COLO205 cells assessed as cell growth at 5X10'-6 M after 48 hrs by sulforhodamine B assay. The conditions noted are these: COLO 205, 48 h, read-out: Activity.
In assay [15] the test system is OVCAR-4. Put plainly: Growth inhibition of human OVCAR4 cells assessed as cell growth at 5X10'-7 M after 48 hrs by sulforhodamine B assay. The conditions noted are these: OVCAR-4, 48 h, read-out: Activity.
Assay [16] deals with UACC-62. Put plainly: Growth inhibition of human UACC62 cells assessed as cell growth at 5X10'-7 M after 48 hrs by sulforhodamine B assay. The conditions noted are these: UACC-62, 48 h, read-out: Activity.
In assay [17] the test system is M14. Put plainly: Growth inhibition of human M14 cells assessed as cell growth at 5X10'-7 M after 48 hrs by sulforhodamine B assay. The conditions noted are these: M14, 48 h, read-out: Activity.
Assay [18] relates to RXF 393. The experiment in a line: Growth inhibition of human RXF393 cells assessed as cell growth at 5X10'-8 M after 48 hrs by sulforhodamine B assay. The settings on record: RXF 393, 48 h, read-out: Activity.
Another assay deals with PC-3. Put plainly: Growth inhibition of human PC3 cells assessed as cell growth at 5X10'-5 M after 48 hrs by sulforhodamine B assay. The conditions noted are these: PC-3, 48 h, read-out: Activity.
In a further assay the test system is NCI-H226. Put plainly: Growth inhibition of human NCI-H226 cells assessed as cell growth at 5X10'-8 M after 48 hrs by sulforhodamine B assay. The settings on record: NCI-H226, 48 h, read-out: Activity.
Another assay relates to MDA-MB-435. Put plainly: Growth inhibition of human MDA-MB-435 cells assessed as cell growth at 5X10'-9 M after 48 hrs by sulforhodamine B assay. The conditions noted are these: MDA-MB-435, 48 h, read-out: Activity.

Regarding `COc1cc(-c2nn(-c3cccc(NC(=O)c4ccc(Cl)c(C(F)(F)F)c4)c3)cc2-c2ccncc2)ccc1Cl`, the growth at 0.3 µM is 94% in the assay with HOP-62 [1]; 115% with K562 [2]; 82% in assay [14]; 89% with MCF7; 47% with UO-31. Also, the growth at 0.03 µM in the assay on MDA-MB-231 was found to be 97%; with OVCAR-8, 98%; with M14 [3] it was 96%; in the assay with NCI-H23 [4], 92%; in the assay with HOP-62 [5], 96%; in the assay with MOLT-4 it was 97%. Besides, the growth at 0.03 µM with HL-60(TB) was 113%. Moreover, the growth at 30 µM was -11% in the assay with RXF 393 [6]; 68% with OVCAR-5; 32% with OVCAR-4 [8]; 29% in the assay with SK-MEL-28; 16% in the assay with LOX IMVI; 29% in the assay on SNB-19. Also, in the assay on NCI-H23 [9], the growth at 30 µM came out at 17%. The growth at 0.003 µM is 99% with RXF 393 [7]; 104% in the assay on OVCAR-3; 99% with UACC-62 [11]; 100% in the assay with SF-539; 94% in the assay with SF-268; 100% with HCT-116. Moreover, the growth at 3 µM worked out at 43% in assay [10], 71% in the assay with 786-0, 40% in the assay with UACC-62 [12] and 22% in the assay on K562 [13].
Regarding `O=C(Nc1cccc(-n2cc(-c3ccncc3)c(-c3ccc(Cl)c(O)c3)n2)c1)Nc1ccc(Cl)c(Cl)c1`, the growth at 0.3 µM with HOP-62 [1] turned out to be 111%; with K562 [2], 110%; in [14], 82%; in the assay on MCF7 it was 94%; in the assay on UO-31 it was 93%. Further, the growth at 0.03 µM in the assay with MDA-MB-231 amounted to 100%; in the assay on OVCAR-8, 98%; with M14 [3], 94%; in the assay on NCI-H23 [4] it was 93%; in the assay with HOP-62 [5], 96%; with MOLT-4, 99%. In addition, the growth at 0.03 µM with HL-60(TB) stood at 101%. The growth at 30 µM in the assay with RXF 393 [6] was -37%; in the assay on OVCAR-5, 1%; with OVCAR-4 [8], 17%; in the assay with SK-MEL-28, -27%; in the assay on LOX IMVI, -77%; in the assay with SNB-19 it was 18%. The growth at 30 µM in the assay on NCI-H23 [9] is -1%. Moreover, the growth at 0.003 µM is 96% in the assay on RXF 393 [7]; 96% with OVCAR-3; 99% in the assay with UACC-62 [11]; 92% with SF-539; 93% in the assay with SF-268; 94% with HCT-116. Also, the growth at 3 µM in assay [10] is -1%; with 786-0, 74%; with UACC-62 [12] it was 14%; in the assay with K562 [13], 16%.
Turning to `O=C(Nc1cccc(-n2cc(-c3ccncc3)c(-c3ccc(Cl)c(O)c3)n2)c1)Nc1cc(C(F)(F)F)cc(C(F)(F)F)c1`, the growth at 5 µM in the assay with COLO 205 was -94%. The growth at 0.5 µM in the assay with OVCAR-4 [15] is 65%; in the assay with UACC-62 [16] it was 69%; in the assay on M14 [17], 59%. Besides, the growth at 0.05 µM with RXF 393 [18] was 89%; in the assay with NCI-H226, 85%. In addition, in the assay on PC-3, the growth at 50 µM is -49%. Further, the growth at 0.005 µM with MDA-MB-435 turned out to be 98%.
Regarding `O=C(Nc1cccc(-n2cc(-c3ccncc3)c(-c3ccc(Cl)c(O)c3)n2)c1)c1ccc(N2CCOCC2)c(C(F)(F)F)c1`, the growth at 5 µM with COLO 205 turned out to be 87%. In addition, the growth at 0.5 µM amounted to 112% in the assay with OVCAR-4 [15], 97% in the assay on UACC-62 [16] and 84% in the assay on M14 [17]. Moreover, the growth at 0.05 µM in the assay on RXF 393 [18] is 101%; with NCI-H226, 95%. Further, the growth at 50 µM in the assay with PC-3 came to 7%. Besides, the growth at 0.005 µM with MDA-MB-435 was determined as 93%.
